Reference: patent US20230130066A1, “USE OF CYCLODEXTRINS IN DISEASES AND DISORDERS INVOLVING PHOSPHOLIPID DYSREGULATION” (priority 2017, published 2023)
Entries after “also recorded” stand apart in the source; their conditions may differ. Where two headings read alike, the source gives them in different places. Marks after values point to notes of the source that are not given here.

Columns and labels:
[1] = system: MCF-7 cells; assay: Wound healing / gap closure migration assay, MCF-7; type: cell-based, human; conditions: extrapolated from the results in FIG. 35
Experimental: Cells were cultured in 24-well culture plates (Cytoselect CBA-120, 0.9 mm wound healing/gap closure migration assay) for 24 h with wound healing insert in place.
Protocol: Warm up the 24-well plate (CBA-120, Cell BioLabs Inc.) with 0.9 mm CytoSelect Wound Healing Inserts at room temperature for 10 minutes. Using sterile forceps, orient the desired number of inserts in the plate wells with their “wound field” aligned in the same direction. Create a cell suspension containing 0.5-1.0×10^6 cells/ml in media containing 10% fetal bovine serum (FBS). Add 500 μL of cell suspension to each well by carefully inserting the pipette tip through the open end at the top of the insert. For optimal cell dispersion, add 250 μL of cell suspension to either side of the open ends at the top of the insert. Incubate cells in a cell culture incubator for 12-24 hours. Carefully remove the insert from the well to begin the wound healing assay. Use sterile forceps to grab and lift the insert slowly from the plate well. Slowly aspirate and discard the media from the wells. Wash wells with media to remove dead cells and debris. Finally, add media to wells to keep cells hydrated. Repeat wash if wells still have debris or unattached cells. When washing is complete, add media with FBS and/or compounds to continue cell culture and wound healing process. Agents that inhibit or stimulate cell migration can be added directly to the wells. Incubate cells in a cell culture incubator (2 hours) and then wash cells with PBS and then add fresh media without compounds. Incubate 12-24 hours before wash and fixing. Remove the fixation solution and add 400 μL of Cell Stain Solution to each well. Allow the stain to incubate with the cells for 15 minutes at room temperature. Aspirate and discard the solution. Carefully wash each stained well 3× with deionized water. Discard washes and allow cells to dry at room temperature. Cells that migrated into the wounded area or protruded from the border of the wound were visualized and photographed under an inverted microscope. Determine the surface area of the defined wound area: Total Surface Area=0.9 mm x length. Determine the surface area of the migrated cells into the wound area: Migrated Cell Surface Area=length of cell migration (mm)×2×length. Percent Closure (%)=Migrated Cell Surface Area/Total Surface Area x 100.

[2] = system: transferrin endocytosis; conditions: 10 mM; cited from earlier work
[3] = system: erythrocytes; conditions: cited from earlier work
[4] = system: rats; conditions: rat, in vivo, iv; cited from earlier work
[5] = system: rats; conditions: cited from earlier work; for nephrosis, 1, 2, 3, 4, or 7 daily doses s.c.: 0.100 g/kg daily
[6] = 12 mM cyclodextrin, 5 μM A2E, blue-light irradiation or 1 d in the dark; cited from earlier work
[7] = in vivo; cited from earlier work
[8] = parenteral delivery; cited from earlier work
[9] = system: human keratinocytes; conditions: cited from earlier work
[10] = cited from earlier work
[11] = cited from earlier work; remark: listed apart in the source
[12] = system: NPC cells; conditions: cited from earlier work
[13] = Table 3; cited from earlier work
[14] = LDL-receptor knockout mice, Western diet (21% milk fat) with 2.1% α-CD; cited from earlier work
[15] = system: HaCaT keratinocytes; conditions: v. βCD; cited from earlier work
[16] = system: enlarged lysosomes in fibroblasts; conditions: about 6 mM α-CD vs about 8 mM HP-β-CD; cited from earlier work
[17] = system: human erythrocytes; conditions: cited from earlier work
[18] = system: BBB; conditions: cited from earlier work
[19] = system: rats; conditions: cited from earlier work
[20] = animal studies; cited from earlier work

OC[C@H]1O[C@@H]2O[C@H]3[C@H](O)[C@@H](O)[C@@H](O[C@H]4[C@H](O)[C@@H](O)[C@@H](O[C@H]5[C@H](O)[C@@H](O)[C@@H](O[C@H]6[C@H](O)[C@@H](O)[C@@H](O[C@H]7[C@H](O)[C@@H](O)[C@@H](O[C@H]1[C@H](O)[C@H]2O)O[C@@H]7CO)O[C@@H]6CO)O[C@@H]5CO)O[C@@H]4CO)O[C@@H]3CO [α-CD, alpha-cyclodextrin]
dose with the same efficacy in preventing migration of cancer cells as 2000 mg/kg/d bCD [1]: 700 mg/kg/day
reduction of transferrin endocytosis [2]: 20%
phospholipids released ([3]; 10 mM): 30%
extraction of cholesterol ([3]; erythrocytes): negligible
single dose i.v. LD50 [4]: 0.788/1.008 * g/kg
nephrosis, 1, 2, 3, 4, or 7 daily doses s.c. ([5]; listed as α-cyclodextrin): not apparent
nephrosis, 1, 2, 3, 4, or 7 daily doses s.c. [5]: 0.100 no nephrosis
deaths, daily doses s.c. ([5]; 1.000 g/kg daily, listed as α-cyclodextrin): 1 died after 2 days
deaths, daily doses s.c. ([5]; 1.000 g/kg daily): one died after 2 days
nephrosis, daily doses s.c. ([5]; 1.000 g/kg daily): 1.000 severe
protection of A2E against oxidation [6]: not
tolerance in cyclosporine eye-drops [7]: well tolerated
excretion into the urine [8]: excreted almost completely in an intact form
apoptotic cell death [9]: not apoptotic
i.v. toxicity, 1 g daily [10]: 1 died
oral absorption in rats [11]: 2-3%
cholesterol accumulation [12]: can reduce cholesterol accumulation
Solubility in water [13]: 130 to 145 mg/mL
decrease of plasma PLs [14]: 17.5%
toxicity in HaCaT cells (proliferation, caspase activity, lactose dehydrogenase) [15]: lower toxicity
reducing lysosomal storage [16]: more effective
hemolytic activity / tolerance of human erythrocytes [17]: lower than that of both β-CD and HP-β-CD; also recorded: tolerate α-CD better then β-CD
BBB breakdown [18]: 1 mM
toxicity on BBB in vitro [18]: more toxic
nephrosis, single dose s.c. ([19]; 0.100 g/kg): 0.100 no changes
nephrosis, single dose s.c. ([19]; 1.000 g/kg): 1.000 changes seen
ototoxicity [20]: did not show ototoxicity
